Results on one compound are retold here after article PMC11148078, “Potent activity of polymyxin B is associated with long-lived super-stoichiometric accumulation mediated by weak-affinity binding to lipid A” (Nature Communications, 2024).

In assay [1] the test system is mammalian extracellular vesicles (Expi293 cells). As to the kind of experiment: SPR binding to mammalian vesicles on LP chip. The settings on record: 312.5 nM–40 µM, 25 °C. From the text: tween-80 (SI Fig. S4F). Note that higher concentrations were used to resolve the interaction above non-specific chip binding and the loss of polymyxin B to binding of plastics as discussed […]
OMVs isolated from polymyxin-resistant bacteria (resistant-OMVs) were composed of modified lipid A (SI Table S1 and SI Fig. S6) and were immobilized via amine-coupled polymyxin B to the surface of a C1 chip (SI Fig. S4G). Given the results of our studies here, the binding of resistant-OMVs to the amine-coupled polymyxin B surface (stably, at least within the time frames used here) is not surprising. OMVs have several advantages over whole cells and purified LPS. They can be produced in large batches and frozen for multiple experiments. OMVs can be isolated from potentially any genetic background (such as the two polymyxin-resistant strains used here), from potentially any gram-negative bacterial strains, and allow interrogation of types of LPS which are not commercially available (ex. modified lipid A species). […]
Analysis and compartment temperature were set to 25°C. Mammalian vesicles from Expi293 cells were isolated as described19 by harvesting supernatants and concentrating vesicles via ultra-centrifugation (120,000 xg, 4°C, 1h), washing, suspending pellet in PBS, quantifying by Bradford protein assay, and diluting to […] in PBS. […]
Background: Surface plasmon resonance follows binding to a sensor surface in real time, without labels.

Another assay has as its system bacterial cells. The settings on record: different methods, ref [27]–[31], cited from earlier work. The method, then:
Investigations into the binding of polymyxins to bacterial cells have generally relied on whole-cell and plate-based equilibrium approaches. Different methods have produced equilibrium binding constants (KDs) for polymyxin B ranging from 400 nM up to greater than 100 µM[27]–[31], which are, in some cases, multiple orders-of-magnitude higher than the reported cellular potency of these antibiotics. However, these approaches are likely complicated by the rapid kill-kinetics of polymyxins, non-specific binding of polymyxins to plate surfaces, assumptions of a simple binding mechanism, an inoculum ...

Where two headings read alike, the source gives them in different places. Bridge positions count the residues as written; N and C are the ends. Square brackets hold non-standard residues; d marks the D form. Peptide text beside a SMILES is read from it. * marks the point of attachment. X1 = CC[C@H](C)CCCCC(=O)*; Dab = NCC[C@H](N)C(=O)O

`CC[C@H](C)CCCCC(=O)N[C@@H](CCN)C(=O)N[C@H](C(=O)N[C@@H](CCN)C(=O)N[C@H]1CCNC(=O)[C@H]([C@@H](C)O)NC(=O)[C@H](CCN)NC(=O)[C@H](CCN)NC(=O)[C@H](CC(C)C)NC(=O)[C@@H](Cc2ccccc2)NC(=O)[C@H](CCN)NC1=O)[C@@H](C)O` [Polymyxin B] (X1-[Dab]T[Dab][Dab][Dab][dF]L[Dab][Dab]T; lactam 4-C (inferred); N-terminus assumed): in assay [1], the “SPR binding to mammalian cell derived vesicles” value was “distinct from what we observe with OMVs and bacterial cells”. In addition, the dissociation constant Kd in the assay with bacterial cells (read-out: equilibrium binding constant KD, lower end) is 400 nM; in the assay with bacterial cells (read-out: equilibrium binding constant KD, upper end), greater than 100000 nM.

By Kd is commonly meant the free concentration of one partner at which half of the binding sites on the other are occupied at equilibrium, for simple one-to-one binding.
